Measurements taken from article PMC6471618, “Comparison of the Sulfonamide Inhibition Profiles of the α-Carbonic Anhydrase Isoforms (SpiCA1, SpiCA2 and SpiCA3) Encoded by the Genome of the Scleractinian Coral Stylophora pistillata” (Marine Drugs, 2019).
Entries after “also recorded” stand apart in the source; their conditions may differ. Where two headings read alike, the source gives them in different places.

How the values were obtained:
[1] = test system: coral calcification rates; set-up: method as in PMID 27513959; details: cited from earlier work
SpiCA3 = SpiCA3 (Stylophora pistillata, UniProt A0A1B0Y357); format: biochemical
Description: An Applied Photophysics stopped-flow instrument (Leatherhead, Surrey (UK)) has been used for assaying the CA catalyzed CO2 hydration activity. […] The un-catalyzed rates were determined in the same manner and subtracted from the total observed rates. […] The inhibition constants were obtained by non-linear least-squares methods using PRISM 3 and the Cheng-Prusoff equation, as reported earlier, and represent the mean from at least three different determinations. All CA isoforms were recombinant ones obtained in-house. All salts/small molecules were of the highest purity available, from Sigma-Aldrich (Milan, Italy).

hCA I = test system: hCA I; set-up: method as in References 12 and 45; details: ref References 12 and 45, cited from earlier work; for hCA I inhibition, in words: authors' grading of the KI values of Table 1; for Ki: human recombinant isozyme, stopped flow CO2 hydrase assay
hCA II = test system: hCA II; set-up: method as in References 12 and 45; details: cited from earlier work
SpiCA1 = test system: SpiCA1; set-up: method as in References 12 and 45; details: ref References 12 and 45, cited from earlier work; for SpiCA1 inhibition, in words: authors' grading of the KI values of Table 1; for Ki: coral recombinant isoform, stopped flow CO2 hydrase assay
SpiCA2 = test system: SpiCA2; set-up: method as in References 12 and 45; details: ref References 12 and 45, cited from earlier work; for SpiCA2 inhibition, in words: authors' grading of the KI values of Table 1; for Ki: coral recombinant isoform, stopped flow CO2 hydrase assay
[2] = authors' grading of the KI values of Table 1
[3] = read-out: KI SpiCA3; recombinant coral isoform, stopped-flow CO2 hydration, 20 mM TRIS pH 8.3, 15 min preincubation; errors 5–10%, 3 assays
[4] = recombinant coral isoform, stopped-flow CO2 hydration, 20 mM TRIS pH 8.3, 15 min preincubation; errors 5–10%, 3 assays; read-out: KI SpiCA3

Chain of SpiCA3 (A0A1B0Y357 entry or part of it): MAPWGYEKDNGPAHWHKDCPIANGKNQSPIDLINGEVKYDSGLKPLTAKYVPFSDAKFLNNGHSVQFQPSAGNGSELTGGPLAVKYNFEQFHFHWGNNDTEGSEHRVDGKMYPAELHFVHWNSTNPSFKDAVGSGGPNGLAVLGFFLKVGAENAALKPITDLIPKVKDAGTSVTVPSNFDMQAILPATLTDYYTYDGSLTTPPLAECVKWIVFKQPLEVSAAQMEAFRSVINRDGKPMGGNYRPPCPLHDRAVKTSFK

| Ki (SpiCA3; [4]) [nM] | Compound | SpiCA3 inhibition, in words (SpiCA3; [2]) | Ki (SpiCA1) [nM] | other results |
| --- | --- | --- | --- | --- |
| – | CC(=O)Nc1nnc(S(N)(=O)=O)s1 [AAZ, acetazolamide] | – | – | inhibition of coral calcification rates [1]: up to 73% |
| – | CCN[C@H]1CN(CCCOC)S(=O)(=O)c2sc(S(N)(=O)=O)cc21 [BRZ, brinzolamide] | low potency inhibitors | 48 | Ki (SpiCA3; [3]): 250 nM; hCA I inhibition, in words (hCA I): didn’t affect the hCAI activity; hCA II inhibition, in words (hCA II): high potency inhibitors; SpiCA1 inhibition, in words (SpiCA1): high potency inhibitors; SpiCA2 inhibition, in words (SpiCA2): low potency inhibitors; Ki (SpiCA2): 169 nM |
| – | NS(=O)(=O)c1nnc(NS(=O)(=O)c2ccccc2)s1 [BZA, benzolamide] | – | 20 | Ki (SpiCA3; [3]): 394 nM; Ki (SpiCA2): 214 nM |
| – | Cc1ccc(-c2cc(C(F)(F)F)nn2-c2ccc(S(N)(=O)=O)cc2)cc1 [CLX, celecoxib] | worst inhibitors; also recorded: low potency inhibitors | 34 | hCA I inhibition, in words (hCA I): didn’t affect the hCAI activity; SpiCA1 inhibition, in words (SpiCA1): high potency inhibitors; SpiCA2 inhibition, in words (SpiCA2): low potency inhibitors; Ki (SpiCA2): 690 nM |
| – | Nc1ccc(S(N)(=O)=O)cc1 [Compound 2] | worst inhibitors | 364 | – |
| – | Cc1ccc(S(N)(=O)=O)cc1 [Compound 4] | – | 614 | Ki (SpiCA3; [3]): 694 nM; Ki (hCA I): 78500 nM; Ki (SpiCA2): 516 nM |
| – | NCc1ccc(S(N)(=O)=O)cc1 [Compound 5] | worst inhibitors | 83 | Ki (SpiCA2): 508 nM |
| – | NCCc1ccc(S(N)(=O)=O)cc1 [Compound 6] | worst inhibitors | 94 | Ki (SpiCA2): 577 nM |
| – | Nc1ccc(S(N)(=O)=O)cc1F [Compound 7] | worst inhibitors | 75 | – |
| 918 | Nc1ccc(S(N)(=O)=O)cc1Br [Compound 9] | – | 104 | Ki (SpiCA2): 540 nM |
| – | Nc1cc(C(F)(F)F)c(S(N)(=O)=O)cc1S(N)(=O)=O [Compound 11] | – | 367 | Ki (SpiCA3; [3]): 856 nM |
| 578 | Cn1nc(S(N)(=O)=O)sc1=N [Compound 14] | – | 92 | – |
| 487 | NS(=O)(=O)c1ccc(O)cc1 [Compound 15] | – | – | – |
| 199 | NS(=O)(=O)c1ccc(CO)cc1 [Compound 16] | – | – | – |
| – | NS(=O)(=O)c1ccc(CCO)cc1 [Compound 17] | well inhibited | 770 | Ki (SpiCA3; [3]): 66 nM |
| 241 | NS(=O)(=O)c1ccc(C(=O)O)cc1 [Compound 18] | – | 30 | – |

| Ki (SpiCA3; [4]) [nM] | Compound | SpiCA3 inhibition, in words (SpiCA3; [2]) | Ki (SpiCA1) [nM] | other results |
| --- | --- | --- | --- | --- |
| – | Nc1nccc(Nc2ccc(S(N)(=O)=O)cc2)n1 [Compound 19] | well inhibited | 25 | Ki (SpiCA3; [3]): 83 nM |
| – | Nc1ccc(S(=O)(=O)Nc2nnc(S(N)(=O)=O)s2)cc1 [Compound 20] | well inhibited | 28 | Ki (SpiCA3; [3]): 74 nM |
| 53 | NS(=O)(=O)c1ccc(CCNS(=O)(=O)c2ccc([N+](=O)[O-])cc2CO)cc1 [Compound 21] | well inhibited | – | – |
| 568 | Nc1ccc(S(=O)(=O)Nc2ccc(S(N)(=O)=O)cc2)cc1 [Compound 22] | – | – | – |
| 62 | Nc1ccc(S(=O)(=O)NCc2ccc(S(N)(=O)=O)cc2)cc1 [Compound 23] | well inhibited | – | – |
| – | Nc1ccc(S(=O)(=O)NCCc2ccc(S(N)(=O)=O)cc2)cc1 [Compound 24] | well inhibited | – | Ki (SpiCA3; [3]): 46 nM |
| – | CCN[C@H]1C[C@H](C)S(=O)(=O)c2sc(S(N)(=O)=O)cc21 [DZA, Dorzolamide] | – | – | hCA II inhibition, in words (hCA II): high potency inhibitors; SpiCA1 inhibition, in words (SpiCA1): high potency inhibitors; SpiCA2 inhibition, in words (SpiCA2): low potency inhibitors |
| – | CCOc1ccc2nc(S(N)(=O)=O)sc2c1 [EZA, ethoxzolamide] | – | – | inhibition of coral calcification rates [1]: up to 73% |
| – | NS(=O)(=O)c1cc2c(cc1Cl)NCNS2(=O)=O [HCT, hydrochlorothiazide] | – | – | Ki (SpiCA3; [3]): 243 nM |
| 92 | NS(=O)(=O)c1ccc(S(=O)(=O)Nc2cccc3c(Cl)c[nH]c23)cc1 [IND, indisulam] | well inhibited | 163 | Ki (SpiCA2): 394 nM |
| – | O=C1NS(=O)(=O)c2ccccc21 [SAC, Saccharin] | worst inhibitors | 40 | Ki (hCA I): 18500 nM; Ki (SpiCA2): 104 nM |
| – | CCN1CCCC1CNC(=O)c1cc(S(N)(=O)=O)ccc1OC (centres unmarked) [SLP, Sulpiride] | worst inhibitors | – | – |
| 251 | NS(=O)(=O)c1ccc(N2CCCCS2(=O)=O)cc1 [SLT, sulthiame] | – | – | – |
| – | CC1(C)O[C@@H]2[C@@H](CO[C@@]3(COS(N)(=O)=O)OC(C)(C)O[C@@H]23)O1 [TPM, topiramate] | worst inhibitors | 29 | Ki (SpiCA2): 367 nM |
| – | Cc1onc(-c2ccccc2)c1-c1ccc(S(N)(=O)=O)cc1 [VLX, valdecoxib] | – | – | SpiCA2 inhibition, in words (SpiCA2): ineffective |
| – | NS(=O)(=O)Cc1noc2ccccc12 [ZNS, zonisamide] | worst inhibitors | 259 | Ki (SpiCA2): 645 nM |

| Compound | Ki (SpiCA3; [4]) [nM] | SpiCA3 inhibition, in words (SpiCA3; [2]) | Ki (SpiCA1) [nM] | other results |
| --- | --- | --- | --- | --- |
| NS(=O)(=O)c1cccc(S(N)(=O)=O)c1 [Compound 3] | 667 | – | – | Ki (hCA I): 79 nM |
| Nc1ccc(S(N)(=O)=O)cc1Cl [Compound 8] | 1810 | worst inhibitors | 88 | – |
| Nc1cc(Cl)c(S(N)(=O)=O)cc1S(N)(=O)=O [Compound 12] | 430 | – | 295 | – |
| Nc1nnc(S(N)(=O)=O)s1 [Compound 13] | 275 | – | 105 | – |
| CC(=O)/N=c1/sc(S(N)(=O)=O)nn1C [MZA, methazolamide] | 821 | – | 21 | – |
